From US20240025893A1, “PYRIMIDINE-AND NITROGEN-CONTAINING BICYCLIC COMPOUND” (Asahi Kasei Pharma Corporation, priority 2020, published 2024)

Tests used:
[1] = tested on: LPS-stimulated TNFα production in THP-1 cells; experiment: LPS-stimulated TNFα production inhibition test using human acute monocytic leukemia cell strain THP-1; format: cell-based; settings: Homo sapiens, LPS 2.5 ng/mL, average values
How it was run: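 Readout was HTRF-measured TNFα in supernatants, calibrated against a standard curve, after LPS challenge (2.5 ng/mL final, 4 h) of THP-1 cells pretreated 1 h at 37 °C with compound. Unstimulated wells defined 100% suppression and vehicle wells 0%. IC50 was fitted with a 4-parameter logistic model.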

human IRAK-4 = human IRAK-4 (Homo sapiens (Human), UniProt Q9NWZ3); experiment: Measurement of human IRAK-4 inhibitory activity (TR-FRET, peptide substrate phosphorylation, 10 μM ATP); format: biochemical; settings: 1 nM IRAK-4, 10 μM ATP, 23° C., 30 minutes; average values
Chain of human IRAK-4 (Q9NWZ3 whole entry): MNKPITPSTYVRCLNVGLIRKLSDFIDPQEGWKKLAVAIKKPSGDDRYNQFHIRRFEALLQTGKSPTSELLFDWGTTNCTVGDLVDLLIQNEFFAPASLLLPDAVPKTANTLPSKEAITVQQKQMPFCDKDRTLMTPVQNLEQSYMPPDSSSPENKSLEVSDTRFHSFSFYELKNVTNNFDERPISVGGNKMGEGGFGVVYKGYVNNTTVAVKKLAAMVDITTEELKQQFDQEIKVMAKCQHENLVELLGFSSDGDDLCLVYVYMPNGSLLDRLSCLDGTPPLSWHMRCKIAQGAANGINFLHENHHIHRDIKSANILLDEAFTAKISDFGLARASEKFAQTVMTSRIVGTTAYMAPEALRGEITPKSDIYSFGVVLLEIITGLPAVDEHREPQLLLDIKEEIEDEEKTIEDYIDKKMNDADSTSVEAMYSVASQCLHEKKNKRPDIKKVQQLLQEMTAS
How it was run: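 With 1 nM IRAK-4, 0.5 μM biotinylated peptide and 10 μM ATP, compound incubated 30 min at 23 °C in 50 mM HEPES pH 7.2 with Mg2+/Mn2+. Stopped with EDTA plus europium-cryptate anti-phosphopeptide antibody and streptavidin-XL665, 60 min at 23 °C. Activity taken as the 665/620 nm TR-FRET ratio.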

| Compound | IC50 ([1]; THP-1, 4 h) [µM] | IC50 (human IRAK-4) [µM] | IC50 ([1]; 4 hours) [µM] |
| --- | --- | --- | --- |
| CC(C)C(=O)N1CCN([C@H]2C[C@@H](C(=O)Nc3nc4ccc(-c5cnc(CO[C@H]6CCC[C@@H]6O)nc5)cc4s3)C2)[C@@H](C)C1 [b-05-06] | 0.046 | 0.00225 |  |
| O=C(Nc1nc2ccc(-c3cnc(CO[C@H]4CCC[C@@H]4O)nc3)cc2s1)C1C[C@H]1c1ccncc1 (stereo partly drawn) [a-01-08] | 0.161 | 0.00266 |  |
| O=C(Nc1nc2ccc(-c3cnc(CO[C@H]4CCC[C@@H]4O)nc3)cc2s1)C1CC(N2CCC3(CC2)COC3)C1 (stereo partly drawn) [b-02-74] | 0.189 | 0.00157 |  |
| O=C(Nc1nc2ccc(-c3cnc(CO[C@H]4CCC[C@@H]4O)nc3)cc2s1)C1CC2(CCN(C(=O)C3COC3)CC2)C1 [d-03-09] | 0.158 | 0.00147 |  |
| Cc1oncc1C(=O)N1CCN([C@H]2C[C@@H](C(=O)Nc3nc4ccc(-c5cnc(CO[C@H]6CCC[C@@H]6O)nc5)cc4s3)C2)[C@@H](C)C1 [b-04-29] | 0.055 | 0.0016 |  |
| O=C(Nc1nc2ccc(-c3cnc(CO[C@H]4CCC[C@@H]4O)nc3)cc2s1)C1CC(N2CCOCC2)C1 (stereo partly drawn) [b-01-01, N-(6-(2-((((1S,2S)-2-Hydroxycyclopentyl)oxy)methyl)pyrimidin-5-yl)benzo[d]thiazol-2-yl)-3-moipholinocyclobutane-1-carboxamide] | 0.154 | 0.00339 |  |
| COc1ccc(C(=O)N2CCN([C@H]3C[C@@H](C(=O)Nc4nc5ccc(-c6cnc(CO[C@H]7CCC[C@@H]7O)nc6)cc5s4)C3)[C@@H](C)C2)cn1 [b-04-45] | 0.015 | 0.00066 |  |
| C[C@H]1CN(C(=O)C23CC(C#N)(C2)C3)CCN1[C@H]1C[C@@H](C(=O)Nc2nc3ccc(-c4cnc(CO[C@H]5CCC[C@@H]5O)nc4)cc3s2)C1 [b-04-03] | 0.046 | 0.00321 |  |
| CC(C)[C@H]1CN(C(=O)c2ccccn2)CCN1C1CC(C(=O)Nc2nc3ccc(-c4cnc(CO[C@H]5CCC[C@@H]5O)nc4)cc3s2)C1 (stereo partly drawn) [b-04-15] | 0.028 | 0.00161 |  |
| O=C(Nc1nc2ccc(-c3cnc(CO[C@H]4CCC[C@@H]4O)nc3)cc2s1)C1CC(NC2(C(F)(F)F)CCCC2)C1 (stereo partly drawn) [b-02-80] | 0.176 | 0.00686 |  |
| O=C(Nc1nc2ccc(-c3cnc(CO[C@H]4CCC[C@@H]4O)nc3)cc2s1)C1CC(NC2CCCC2)C1 (stereo partly drawn) [b-02-50] | 0.144 | 0.00193 |  |
| CC12CC(NC3CC(C(=O)Nc4nc5ccc(-c6cnc(CO[C@H]7CCC[C@@H]7O)nc6)cc5s4)C3)(C1)C2 (stereo partly drawn) [b-02-49] | 0.119 | 0.00252 |  |
| COCC(=O)N1CCN([C@H]2C[C@@H](C(=O)Nc3nc4ccc(-c5cnc(CO[C@H]6CCC[C@@H]6O)nc5)cc4s3)C2)[C@@H](C)C1 [b-05-03] | 0.05 | 0.00181 |  |
| O=C(Nc1nc2ccc(-c3cnc(CO[C@H]4CCC[C@@H]4O)nc3)cc2s1)C1CC(NCC(F)F)C1 (stereo partly drawn) [b-02-52] |  | 0.0026 | 0.176 |
| O=C(Nc1nc2ccc(-c3cnc(CO[C@H]4CCC[C@@H]4O)nc3)cc2s1)C1CC(N2CCC[C@@H]2C(F)(F)F)C1 (stereo partly drawn) [b-02-43] | 0.123 | 0.0031 |  |
| O=C(Nc1nc2ccc(-c3cnc(CO[C@H]4CCC[C@@H]4O)nc3)cc2s1)C1CC2(CCN(CC(F)(F)F)CC2)C1 [d-03-08] | 0.137 | 0.00128 |  |
| COc1c(-c2cnc(CO[C@H]3CCC[C@@H]3O)nc2)ccn2nc(NC(=O)C3CC3)cc12 [e-04-01, N-(5-(2-((((1S,2S)-2-Hydroxycyclopentyl)oxy)methyl)pyrimidin-5-yl)-4-methoxypyrazolo[1,5-a]pyridin-2-yl)cyclopropanecarboxamide] | 0.431 | 0.00374 |  |
| O=C(Nc1nc2ccc(-c3cnc(CO[C@H]4CCC[C@@H]4O)nc3)cc2s1)C1CC(N2CCCCC2)C1 (stereo partly drawn) [b-02-83] | 0.149 | 0.00193 |  |
| CCCOCc1ncc(-c2ccn3nc(NC(=O)[C@H]4C[C@@H](N5CCN(C(=O)c6ccnc(C(F)(F)F)c6)C[C@@H]5C)C4)cc3c2)cn1 [e-02-17] | 0.2 | 0.00136 |  |
| Cn1cc([C@@H]2CC2C(=O)Nc2nc3ccc(-c4cnc(CO[C@H]5CCC[C@@H]5O)nc4)cc3s2)cn1 (stereo partly drawn) [a-01-07] | 0.148 | 0.00173 |  |

| Compound | IC50 ([1]; THP-1, 4 h) [µM] | IC50 (human IRAK-4) [µM] | IC50 ([1]; 4 hours) [µM] |
| --- | --- | --- | --- |
| O=C(Nc1nc2ccc(-c3cnc(CO[C@H]4CCC[C@@H]4O)nc3)cc2s1)C1CC(N2CCOCC3(CC3)C2)C1 (stereo partly drawn) [b-02-24] | 0.18 | 0.00191 |  |
| C[C@H]1CN(C(=O)c2ccncc2Cl)CCN1[C@H]1C[C@@H](C(=O)Nc2nc3ccc(-c4cnc(CO[C@H]5CCC[C@@H]5O)nc4)cc3s2)C1 [b-04-48] | 0.035 | 0.00052 |  |
| CO[C@@H]1CCN(C2CC(C(=O)Nc3nc4ccc(-c5cnc(CO[C@H]6CCC[C@@H]6O)nc5)cc4s3)C2)C1 (stereo partly drawn) [b-02-15] | 0.157 | 0.00225 |  |
| C[C@H]1CN(C2CC2)CCN1C1CC(C(=O)Nc2nc3ccc(-c4cnc(CO[C@H]5CCC[C@@H]5O)nc4)cc3s2)C1 (stereo partly drawn) [b-08-01, 3-((S)-4-Cyclopropyl-2-methylpiperazin-1-yl)-N-(6-(2-((((1S,2S)-2-hydroxycyclopentyl)oxy)methyl)pyrimidin-5-yl)benzo[d]thiazol-2-yl)cyclobutane-1-carboxamide] | 0.056 | 0.00197 |  |
| CC(=O)N1CCC2(CC1)CC(C(=O)Nc1nc3ccc(-c4cnc(CO[C@H]5CCC[C@@H]5O)nc4)cc3s1)C2 [d-03-01, 7-Acetyl-N-(6-(2-((((1S,2S)-2-hydroxycyclopentyl)oxy)methyl)pyrimidin-5-yl)benzo[d]thiazol-2-yl)-7-azaspiro[3,5]nonane-2-carboxamide] | 0.067 | 0.00138 |  |
| O=C(Nc1nc2ccc(-c3cnc(COC4CCCC4)nc3)cc2s1)C1CC1 [a-04-01, N-(6-(2-(Cyclopentoxymethyl)pyrimidin-5-yl)-1,3-benzo[d]thiazol-2-yl)cyclopropanecarboxamide] | 0.261 | 0.00138 |  |
| CCCOCc1ncc(-c2ccn3nc(NC(=O)[C@H]4C[C@@H](N5CCN(C(=O)N(C)C)C[C@@H]5C)C4)cc3c2)cn1 [e-02-20] | 0.244 | 0.00222 |  |
| CN1CCN(C2CC(C(=O)Nc3nc4ccc(-c5cnc(CO[C@H]6CCC[C@@H]6O)nc5)cc4s3)C2)CC1 (stereo partly drawn) [b-02-22] | 0.208 | 0.00189 |  |
| O=C(Nc1nc2ccc(-c3cnc(CO[C@H]4CCC[C@@H]4O)nc3)cc2s1)C1CC(N2CCOCC23CCC3)C1 (stereo partly drawn) [b-02-33] | 0.051 | 0.00163 |  |
| CCCOCc1ncc(-c2ccn3nc(NC(=O)[C@H]4C[C@@H](N5CCN(C(=O)c6cccc(C)n6)C[C@@H]5C)C4)cc3c2)cn1 [e-02-18] | 0.2 | 0.00184 |  |
| O=C(Nc1nc2ccc(-c3cnc(CO[C@H]4CCC[C@@H]4O)nc3)cc2s1)C1CC(N2CCOC[C@@H]2C(F)(F)F)C1 (stereo partly drawn) [b-02-54] | 0.135 | 0.00346 |  |
| Cc1cccc(C(=O)N2CCN([C@H]3C[C@@H](C(=O)Nc4nc5ccc(-c6cnc(CO[C@H]7CCC[C@@H]7O)nc6)cc5s4)C3)[C@@H](C)C2)n1 [b-04-21] | 0.033 | 0.00115 |  |
| CC(C)[C@H]1CN(C(=O)C2CCOC2)CCN1C1CC(C(=O)Nc2nc3ccc(-c4cnc(CO[C@H]5CCC[C@@H]5O)nc4)cc3s2)C1 (stereo partly drawn) [b-04-17] | 0.022 | 0.00158 |  |
| O=C(Nc1nc2ccc(-c3cnc(CO[C@H]4CCC[C@@H]4O)nc3)cc2s1)C1CC1 [a-01-01, N-(6-(2-((((1S,2S)-2-Hydroxycyclopentyl)oxy)methyl)pyrimidin-5-yl)benzo[d]thiazol-2-yl)cyclopropanecarboxamide] | 0.121 | 0.00189 |  |
| C[C@H]1CN(C(=O)c2ccccc2)CCN1[C@H]1C[C@@H](C(=O)Nc2nc3ccc(-c4cnc(CO[C@H]5CCC[C@@H]5O)nc4)cc3s2)C1 [b-05-04] | 0.024 | 0.00438 |  |
| C[C@@H]1CN(C2CC(C(=O)Nc3nc4ccc(-c5cnc(CO[C@H]6CCC[C@@H]6O)nc5)cc4s3)C2)C[C@H](C)O1 (stereo partly drawn) [b-02-19] | 0.144 | 0.00254 |  |
| C[C@H]1CN(C(=O)c2cc(F)ccn2)CCN1[C@H]1C[C@@H](C(=O)Nc2nc3ccc(-c4cnc(CO[C@H]5CCC[C@@H]5O)nc4)cc3s2)C1 [b-04-46] | 0.022 | 0.00058 |  |
| O=C(Nc1nc2ccc(-c3cnc(CO[C@H]4CCC[C@@H]4O)nc3)cc2s1)C1CC(N2CCC(F)(F)C2)C1 (stereo partly drawn) [b-02-13] | 0.175 | 0.00377 |  |
| COCCOCC(=O)N1CCN([C@H]2C[C@@H](C(=O)Nc3nc4ccc(-c5cnc(CO[C@H]6CCC[C@@H]6O)nc5)cc4s3)C2)[C@@H](C)C1 [b-04-06] | 0.064 | 0.00237 |  |
